Results from patent US20260356851A1, “TRICYCLIC COMPOUNDS AND USES THEREOF” (HUTCHMED LIMITED, priority 2023, published 2026).

Legend:
Format in all cases: cell-based
[1] = target: T1, pERK1/2 (Thr202/Tyr204), NCI-1H358 (KRAS G12C) (Homo sapiens, UniProt P01116, G12C); test: Assay of intracellular pERK1/2 (Thr202/Tyr204) phosphorylation in NCI-H358 cells (KRAS G12C); details: pERK1/2, 2 days, read-out: NCI-H358 (KRAS G12C) IC50
T1 construct: pERK1/2 HTRF read-out
Method: (§1) Example 2: Assay of intracellular pERK1/2 (Thr202/Tyr204)phosphorylation
(§2) 1. Reagents and materials: • pERK1/2 (Thr202/Tyr2O4) HIRE kit, Cisbio, Cat #64ERKPEH; • OptiPlate™-384-well plate, PerkinElmer, Cat #6007299; • 96-well plate, Coming, Cat #353072; • Instrument: EnVision2104, PerkinElmer; • Cell lines: NCI-1H358 (KRAS G12C), ATCC, CRL-5807; PANC-1 (KRAS G121D), ATCC, CRL-1469; NCI-1H441 (KRAS G12V), ATCC, HTB-174.
(§3) 2. Preparation of Reaction Solutions
(§4) • A test compound was dissolved in DMSO, diluted to 200.0 μM and further diluted 3-fold to prepare a series of test compounds at concentrations of 66.7, 22.2, 7.4, 2.5, 0.82, 0.27, 0.09 μM etc. Then 10 μL of the compound at different dilution concentrations was added to 190 μL of a DMEM medium to prepare a 10× test compound; • 1× cell lysis buffer: 4× cell lysis stock solution (provided by the kit) was diluted 4-fold with deionized water, and then 10% 100× blocking stock solution (provided by the kit) was added thereto. • pERK1/2 detection solution (prepared just before use): the pERK1/2 d2 antibody (provided by the kit) and pERK1/2 Cryptate antibody (provided by the kit) were diluted with the detection solution (provided by the kit) at a ratio of 1:1:38.
(§5) • Cells were inoculated into a 96-well plate (100 μL/well) at a density of 10000-12000/well. No cell was inoculated into a negative control well, and only the cell medium was added at 100 μL/well. The plate was placed in a cell incubator at 5% CO2 and 37° C. overnight. • 10 μL of the 10× test compound was added to the 100 μL cell culture 96-well plate; both the positive control well (that is, the control hole without chemical compound treatment) and the negative control well were charged with 10 μL of a 5% DMSO culture solution; and the plate was cultured in a cell incubator at 5% CO2 and 37° C. for 2 days. • The medium in the 96-well plate was removed; 50 μL of the 1× cell lysis buffer was added to each of the wells; the plate was placed in a microplate shaker; and lysis under shaking was carried out at 900 rpm at room temperature for 1 hour. • 16 μL of the lysis buffer in the 96-well plate was taken and transferred to a 384-well plate, followed by centrifugation at 1000 rpm for 30 s; then 4 μL of pERK1/2 detection solution was added to each well, followed by centrifugation at 1000 rpm for 30 s; and the 384-well plate was sealed with a sealing membrane and incubated at 25° C. on a low-speed shaker at 100 rpm in the dark for 2 hours. • The fluorescence value (RFU) of each well was detected on EnVision2104, with an emission wavelength 1 being 665 nm and an emission wavelength 2 being 615 nm.
(§6) Fluorescence ratio=fluorescence value665 nm/fluorescence value615 nm
(§7) Inhibition rate (%)=100−((fluorescence ratio of compound well−fluorescence ratio of negative control well)/(fluorescence ratio of positive control well−fluorescence ratio of negative control well))×100
(§8) wherein: • the fluorescence ratio of compound well refers to the fluorescence ratio of the well containing the test compounds; • the fluorescence ratio of negative control well refers to the fluorescence ratio of the cell-free control well; • the fluorescence ratio of positive control well refers to the fluorescence ratio of the cell well treated with 0.5% DMSO.
(§9) IC50 value: obtained by calculation using XL-Fit 5.0 software.

[2] = target: T2, pERK1/2 (Thr202/Tyr204), NCI-1H441 (KRAS G12V) (Homo sapiens, UniProt P01116, G12V); test: Assay of intracellular pERK1/2 (Thr202/Tyr204) phosphorylation in NCI-H441 cells (KRAS G12V); details: pERK1/2, 2 days, read-out: NCI-H441 (KRAS G12V) IC50
T2 construct: pERK1/2 HTRF read-out
T2 sequence (P01116 1-188 isoform P01116-2 G12V): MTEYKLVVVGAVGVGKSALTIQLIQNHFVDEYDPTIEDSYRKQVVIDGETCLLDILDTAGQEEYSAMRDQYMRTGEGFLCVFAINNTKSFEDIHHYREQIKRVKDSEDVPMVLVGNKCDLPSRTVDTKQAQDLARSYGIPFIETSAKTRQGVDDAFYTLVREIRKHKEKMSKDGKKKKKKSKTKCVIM
Method: as §1, §2, §3, §4, §5, §6, §7, §8, §9

[3] = target: T3, pERK1/2 (Thr202/Tyr204), PANC-1 (KRAS G121D) (Homo sapiens, UniProt P01116, G12D); test: Assay of intracellular pERK1/2 (Thr202/Tyr204) phosphorylation in PANC-1 cells (KRAS G12D); details: pERK1/2, 2 days, read-out: PANC-1 (KRAS G12D) IC50
T3 construct: pERK1/2 HTRF read-out
T3 sequence (P01116 1-188 isoform P01116-2 G12D): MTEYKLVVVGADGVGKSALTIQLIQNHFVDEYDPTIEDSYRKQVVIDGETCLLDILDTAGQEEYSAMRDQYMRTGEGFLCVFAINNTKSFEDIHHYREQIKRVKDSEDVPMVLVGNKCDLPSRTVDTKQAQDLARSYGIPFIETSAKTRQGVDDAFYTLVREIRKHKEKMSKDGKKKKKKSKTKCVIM
Method: as §1, §2, §3, §4, §5, §6, §7, §8, §9

T1 sequence (P01116 1-188 isoform P01116-2 G12C): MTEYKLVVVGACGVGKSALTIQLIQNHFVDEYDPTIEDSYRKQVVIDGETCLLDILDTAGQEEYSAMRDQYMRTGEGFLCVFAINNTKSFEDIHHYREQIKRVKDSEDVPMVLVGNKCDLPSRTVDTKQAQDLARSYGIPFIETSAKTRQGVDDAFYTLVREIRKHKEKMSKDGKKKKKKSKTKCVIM

CC(c1cccnc1N)N1CCOc2nc(-c3cc(N)c(F)c(Cl)c3C(F)(F)F)c(F)c3nc(OCC45CC(F)CN4CC(F)C5)nc1c23 (single isomer, unassigned; diastereomer 1) [Compound 245, (*)3-(1-(5-(5-amino-3-chloro-4-fluoro-2-(trifluoromethyl)phenyl)-2-(((2R or 2S,6R or 6S)-2,6-difluorotetrahydro-1H-pyrrolizin-7a(5H)-yl)methoxy)-4-fluoro-8,9-dihydro-10H-7-oxa-1,3,6,10-tetraazacyclohepta[de]naphthalen-10-yl)ethyl)pyridin-2-amine (diastereomer 1)]
IC50 [1]: 0.2 nM | IC50 [2]: 0.5 nM | IC50 [3]: 10 nM

Cc1c(F)c(N)cc(-c2nc3c4c(nc(OC[C@@H]5C[C@@H](F)CN5C)nc4c2F)N(C(C)c2cccnc2N)[C@@H](C)CO3)c1C(F)(F)F (single isomer, unassigned) [Compound 278, 3-((R or S)-1-((S)-5-(5-amino-4-fluoro-3-methyl-2-(trifluoromethyl)phenyl)-4-fluoro-2-(((2S,4R)-4-fluoro-1-methylpyrrolidin-2-yl)methoxy)-9-methyl-8,9-dihydro-10H-7-oxa-1,3,6,10-tetraazacyclohepta[de]naphthalen-10-yl)ethyl)pyridin-2-amine]
IC50 [1]: 0.2 nM | IC50 [2]: 0.6 nM | IC50 [3]: 2 nM

CC(=O)Nc1ncccc1C(C)N1CCOc2nc(-c3cc(N)c(F)c(C)c3C(F)(F)F)c(F)c3nc(OC[C@@]45CCCN4C[C@H](F)C5)nc1c23 (stereo partly drawn) [Compound 266]
IC50 [1]: 95 nM | IC50 [2]: > 100 nM | IC50 [3]: > 100 nM

Cc1cc2[nH]ncc2c(-c2nc3c4c(nc(OC[C@@]56CCCN5C[C@H](F)C6)nc4c2F)N(C(C)c2cccnc2N)CCO3)c1C(F)(F)F (stereo partly drawn) [Compound 372]
IC50 [1]: 0.3 nM | IC50 [2]: 0.8 nM | IC50 [3]: 4 nM

CC(c1cccnc1N)N1c2nc(OC[C@@]34CCCN3C[C@H](F)C4)nc3c(F)c(-c4c(Cl)ccc5[nH]ncc45)nc(c23)OC[C@@H]1C (stereo partly drawn) [Compound 321]
IC50 [1]: 1 nM | IC50 [2]: 7 nM | IC50 [3]: 36 nM

[2H]C1([2H])CN(C(C)c2cccnc2N)c2nc(OC[C@@]34CCCN3C[C@H](F)C4)nc3c(F)c(-c4cc(N)c(F)c(C)c4C(F)(F)F)nc(c23)O1 (single isomer, unassigned) [Compound 184, 3-((R or S)-1-(5-(5-amino-4-fluoro-3-methyl-2-(trifluoromethyl)phenyl)-4-fluoro-2-(((2R,7aS)-2-fluorotetrahydro-1H-pyrrolizin-7a(5H)-yl)methoxy)-8,9-dihydro-10H-7-oxa-1,3,6,10-tetraazacyclohepta[de]naphthalen-10-yl-8,8-d2)ethyl)pyridin-2-amine]
IC50 [1]: 5 nM | IC50 [2]: 13 nM | IC50 [3]: 28 nM

CC(c1cccnc1N)N1c2nc(OC[C@@]34CCCN3C[C@H](F)C4)nc3c(F)c(-c4c(C5CC5)c(Cl)cc5[nH]ncc45)nc(c23)OC[C@@H]1C (stereo partly drawn) [Compound 332]
IC50 [1]: 0.4 nM | IC50 [2]: 0.9 nM | IC50 [3]: 0.3 nM

[2H]C1([2H])CN(C([2H])(C)c2cccnc2N)c2nc(OC[C@@]34CCCN3C[C@H](F)C4)nc3c(F)c(-c4cc(N)cc(C)c4C(F)(F)F)nc(c23)O1 (stereo partly drawn) [Compound 141]
IC50 [1]: 0.3 nM | IC50 [2]: 0.7 nM | IC50 [3]: > 100 nM

Cc1c(F)c(N)cc(-c2nc3c4c(nc(OCC56CC(F)CN5CC(F)C6)nc4c2F)N(C(C)c2cccnc2N)CCO3)c1C(F)(F)F (single isomer, unassigned; diastereomer 2) [Compound 242, (*)3-(1-(5-(5-amino-4-fluoro-3-methyl-2-(trifluoromethyl)phenyl)-2-(((2R or 2S,6R or 6S)-2,6-difluorotetrahydro-1H-pyrrolizin-7a(5H)-yl)methoxy)-4-fluoro-8,9-dihydro-10H-7-oxa-1,3,6,10-tetraazacyclohepta[de]naphthalen-10-yl)ethyl)pyridin-2-amine (diastereomer 2)]
IC50 [1]: 0.4 nM | IC50 [2]: 3 nM | IC50 [3]: > 100 nM

CC(c1cccnc1N)N1CCOc2nc(-c3nc(N)cc4ccccc34)c(F)c3nc(OC[C@@H]4CCCN4C)nc1c23 (stereo partly drawn) [Compound 28, 1-(10-(1-(2-aminopyridin-3-yl)ethyl)-4-fluoro-2-(((S)-1-methylpyrrolidin-2-yl)methoxy)-9,10-dihydro-8H-7-oxa-1,3,6,10-tetraazacyclohepta[de]naphthalen-5-yl)isoquinolin-3-amine]
IC50 [1]: 448 nM | IC50 [2]: > 1000 nM | IC50 [3]: > 1000 nM

[2H]C([2H])(Oc1nc2c3c(nc(-c4cc(N)cc(C)c4C(F)(F)F)c(F)c3n1)OCCN2C(C)c1cccnc1N)[C@@H]1C[C@@H](F)CN1C([2H])([2H])[2H] (stereo partly drawn) [Compound 122]
IC50 [1]: 0.6 nM | IC50 [2]: 1 nM | IC50 [3]: 11 nM

CC(c1cccnc1N)N1CCOc2nc(-c3cc(O)cc4ccc(F)c(F)c34)c(F)c3nc(OC[C@H]4COCCN4)nc1c23 (stereo partly drawn) [Compound 12]
IC50 [1]: 54 nM | IC50 [2]: 192 nM | IC50 [3]: > 1000 nM

C[C@@H](c1cccnc1N)N1CCOc2nc(-c3c(C(F)(F)F)ccc4[nH]ncc34)c(F)c3nc(OC[C@@H]4CCN4CC(F)F)nc1c23 (single isomer, unassigned) [Compound 39, 3-((1R or 1S)-1-(2-(((S)-1-(2,2-difluoroethyl)azetidin-2-yl)methoxy)-4-fluoro-5-(5-(trifluoromethyl)-1H-indazol-4-yl)-8,9-dihydro-10H-7-oxa-1,3,6,10-tetraazacyclohepta[de]naphthalen-10-yl)ethyl)pyridin-2-amine]
IC50 [1]: 2 nM | IC50 [2]: 7 nM | IC50 [3]: 237 nM

Cc1cc2[nH]nc(C)c2c(-c2nc3c4c(nc(OC[C@@]56CCCN5C[C@H](F)C6)nc4c2F)N(C(C)c2cccnc2N)[C@@H](C)CO3)c1C(F)(F)F (stereo partly drawn) [Compound 378]
IC50 [1]: 0.2 nM | IC50 [2]: 0.6 nM | IC50 [3]: 0.2 nM

Cc1c(F)c(N)cc(-c2nc3c4c(nc(OC[C@@H]5CCCN5C)nc4c2F)N(C(C)c2cccnc2N)CCO3)c1C(F)(F)F (single isomer, unassigned) [Compound 85, 3-((R or S)-1-(5-(5-amino-4-fluoro-3-methyl-2-(trifluoromethyl)phenyl)-4-fluoro-2-(((S)-1-methylpyrrolidin-2-yl)methoxy)-8,9-dihydro-10H-7-oxa-1,3,6,10-tetraazacyclohepta[de]naphthalen-10-yl)ethyl)pyridin-2-amine]
IC50 [1]: 0.4 nM | IC50 [2]: 2 nM | IC50 [3]: 11 nM

Cc1c(F)c(N)cc(-c2nc3c4c(nc(OC[C@@]56CCCN5C[C@H](F)C6)nc4c2F)N(C(C)c2cccnc2N)C[C@H](C)O3)c1C(F)(F)F (single isomer, unassigned) [Compound 253, 3-((R or S)-1-((S)-5-(5-amino-4-fluoro-3-methyl-2-(trifluoromethyl)phenyl)-4-fluoro-2-(((2R,7aS)-2-fluorotetrahydro-1H-pyrrolizin-7a(5H)-yl)methoxy)-8-methyl-8,9-dihydro-10H-7-oxa-1,3,6,10-tetraazacyclohepta[de]naphthalen-10-yl)ethyl)pyridin-2-amine]
IC50 [1]: > 100 nM | IC50 [2]: > 100 nM | IC50 [3]: > 100 nM
